From ChEMBL document CHEMBL1155519, “Discovery of N-phenyl-4-(thiazol-5-yl)pyrimidin-2-amine aurora kinase inhibitors” (J Med Chem, 2010)
The source made the active and inactive calls. The rule behind the calls is not given here.

Assays:
A549 = assay: Cell cycle arrest in asynchronous human A549 cells assessed as accumulation of cyclin B1-negative tetraploid cells at G1 phase at 0.5 to 2 uM after 7 hrs by FACS analysis; assay type: functional, cell-based
SW-620 [1] = assay: Effect on mitotic index in human SW620 cells assessed as appearance of polyploid cells at 1 uM after 48 hrs by propidium iodide staining-based FACS analysis; assay type: functional, cell-based
K562 = assay: Cytotoxicity against human K562 cells after 96 hrs by MTT assay; assay type: functional, cell-based; settings: K562, 96 h
Cytochrome P450 3A = Cytochrome P450 3A (Homo sapiens, UniProt P08684+P20815+Q9HB55+P24462); assay: Inhibition of CYP3A in human hepatocyte at 5 uM; assay type: ADME, cell-based; settings: hepatocytes
HuP-T4 = assay: Cytotoxicity against human HUPT4 cells after 96 hrs by MTT assay; assay type: functional, cell-based; settings: HuP-T4, 96 h
SAOS-2 = assay: Cytotoxicity against human Saos2 cells after 96 hrs by MTT assay; assay type: functional, cell-based; settings: SAOS-2, 96 h
[2] = Antitumor activity against mouse P388D1 cells xenografted in BALB/c mouse assessed as increase in life span at 45 mg/kg, po administered BID on days 1-3 and 7-9 after tumor implantation relative to control
MCF7 [3] = assay: Induction of p53 protein expression in human MCF7 cells at 0.07 to 10 uM after 7 hrs by fluorescent microscopy; assay type: functional, cell-based
[4] = Antitumor activity against mouse P388D1 cells xenografted in BALB/c mouse assessed as increase in life span at 67 mg/kg, po administered BID on days 1-3 and 7-9 after tumor implantation relative to control
BXPC-3 = assay: Cytotoxicity against human BxPC3 cells after 96 hrs by MTT assay; assay type: functional, cell-based; settings: BXPC-3, 96 h
[5] = molecular target: Cyclin-dependent kinase 7/ cyclin H (Homo sapiens, UniProt P50613); assay: Inhibition of CDK7/Cyclin H; assay type: protein-complex assay
[6] = Half life in rat liver microsomes by LC/MS/MS analysis; assay type: ADME, Microsome
[7] = Elimination half life in Wistar rat at 10 mg/kg, po by LC/MS/MS analysis; assay type: ADME, organism-based; set-up: dose 10 mg/kg, route oral; settings: in vivo, read-out: beta t1/2 (converted)
[8] = Fraction unbound in rat plasma by equilibrium dialysis; assay type: ADME, cell-free
HT-29 = assay: Cytotoxicity against human HT-29 cells after 96 hrs by MTT assay; assay type: functional, cell-based; settings: HT-29, 96 h
SW-620 [9] = assay: Induction of apoptosis in human SW620 cells assessed as early apoptotic cells at 1 uM after 24 hrs by TUNEL assay; assay type: functional
Cytochrome P450 1A = Cytochrome P450 1A (Homo sapiens, UniProt P04798+P05177); assay: Inhibition of human recombinant CYP1A at 5 uM; assay type: ADME; settings: recombinant enzyme
[10] = AUC (0 to 24 hrs) in Wistar rat at 10 mg/kg, po after 24 hrs by LC/MS/MS analysis; assay type: ADME, organism-based; set-up: time < 24 hr, dose 10 mg/kg, route oral; settings: plasma
[11] = Inhibition of CK2
NCI-H460 [12] = assay: Antitumor activity against human NCI-H460 cells xenografted in athymic mouse assessed as reduction in tumor volume at 75 mg/kg, po administered QD on day 1 after implantation for 5 days; assay type: functional, organism-based; set-up: dose 75 mg/kg
NCI-H460 [13] = assay: Antitumor activity against human NCI-H460 cells xenografted in athymic mouse assessed as reduction in mean tumor volume at 100 mg/kg, po administered QD on day 1 after implantation for 5 days measured on day 6 relative to control; assay type: functional; set-up: scale not given: the % may be the effect or the level left
MCF7 [14] = assay: Cytotoxicity against human MCF7 cells after 96 hrs by MTT assay; assay type: functional, cell-based; settings: MCF7, 96 h
[15] = Clearance in Wistar rat at 10 mg/kg, po after 24 hrs by LC/MS/MS analysis; assay type: ADME, organism-based; set-up: dose 10 mg/kg, route oral; settings: in vivo
CCRF-CEM = assay: Cytotoxicity against human CCRF-CEM cells after 96 hrs by MTT assay; assay type: functional, cell-based
[16] = Cmax in Wistar rat at 10 mg/kg, po after 24 hrs by LC/MS/MS analysis; assay type: ADME, organism-based; set-up: dose 10 mg/kg, route oral; settings: in vivo
[17] = molecular target: Aurora kinase A (Homo sapiens) (UniProt O14965); assay: Inhibition of Aurora A phosphorylation in human A549 cells at 0.15 to 5 uM after 1 hr by Western blot analysis in presence of nocodazole and proteasome inhibitor MG132; assay type: cell-based
Sequence of Aurora kinase A (Homo sapiens) (O14965 whole entry): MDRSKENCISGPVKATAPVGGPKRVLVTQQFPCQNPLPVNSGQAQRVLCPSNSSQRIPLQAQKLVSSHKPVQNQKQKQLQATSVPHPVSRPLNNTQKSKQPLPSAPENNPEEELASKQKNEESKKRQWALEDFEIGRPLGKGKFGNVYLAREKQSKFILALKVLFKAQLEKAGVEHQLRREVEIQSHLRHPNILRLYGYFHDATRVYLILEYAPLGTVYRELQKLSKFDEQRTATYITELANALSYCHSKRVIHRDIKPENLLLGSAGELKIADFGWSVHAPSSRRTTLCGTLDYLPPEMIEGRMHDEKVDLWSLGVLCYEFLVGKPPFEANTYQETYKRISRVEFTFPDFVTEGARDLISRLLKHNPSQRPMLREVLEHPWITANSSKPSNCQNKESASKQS

Sequence of Cyclin-dependent kinase 7/ cyclin H (P51946 whole entry): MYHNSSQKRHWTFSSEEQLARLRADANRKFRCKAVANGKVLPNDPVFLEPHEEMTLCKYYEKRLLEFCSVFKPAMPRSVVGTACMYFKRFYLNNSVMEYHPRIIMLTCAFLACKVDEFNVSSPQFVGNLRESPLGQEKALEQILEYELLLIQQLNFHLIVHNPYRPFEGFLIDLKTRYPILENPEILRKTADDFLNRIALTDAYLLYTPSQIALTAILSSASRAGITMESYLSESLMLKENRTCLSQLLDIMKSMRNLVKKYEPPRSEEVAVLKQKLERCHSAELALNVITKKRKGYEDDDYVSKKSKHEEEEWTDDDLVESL
Sequence of Cyclin-dependent kinase 7/ cyclin H (P50613 whole entry): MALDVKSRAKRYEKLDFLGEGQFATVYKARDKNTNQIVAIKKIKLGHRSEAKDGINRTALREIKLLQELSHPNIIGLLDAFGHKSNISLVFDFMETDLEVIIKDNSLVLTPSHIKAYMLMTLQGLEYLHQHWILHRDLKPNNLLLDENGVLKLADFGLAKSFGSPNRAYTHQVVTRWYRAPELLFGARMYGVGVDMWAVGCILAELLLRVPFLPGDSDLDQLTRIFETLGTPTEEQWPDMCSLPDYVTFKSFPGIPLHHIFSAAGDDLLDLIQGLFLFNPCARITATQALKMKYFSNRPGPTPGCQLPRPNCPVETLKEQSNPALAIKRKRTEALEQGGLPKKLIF

Cc1nc(N)sc1-c1ccnc(Nc2ccc(N3CCOCC3)cc2)n1 [CYC-116]
Activity (A549): Active
Activity (SW-620 [1]): Active
IC50 (K562): 1380 nM
inhibition (INH) (Cytochrome P450 3A): Active
IC50 (HuP-T4): 775 nM
IC50 (SAOS-2): 110 nM
Activity [2]: 172%
Activity (MCF7 [3]): inactive
Activity [4]: 183%
IC50 (BXPC-3): 1630 nM
Ki [5]: > 10000 nM
half-life [6]: 0.547 h
half-life [7]: 3 h
fraction unbound [8]: 0.93
IC50 (HT-29): 725 nM
Activity (SW-620 [9]): 91%
inhibition (INH) (Cytochrome P450 1A): Active
AUC(0-t) at 24 h [10]: 13.6 µM·h
Ki [11]: > 10000 nM
Activity (NCI-H460 [12]): Active
Activity (NCI-H460 [13]): 40%
IC50 (MCF7 [14]): 599 nM
CL/F [15]: 33.3 mL/min/kg
IC50 (CCRF-CEM): 471 nM
Cmax [16]: 3.9 µM
inhibition [17]: Active
